Earlier results on 5 compounds are cited in patent publication US20100135983A1, “Anti-inflammatory compositions and methods” (Searete LLC, a limited liability corporation of the State …, priority 2008, published 2010).

The conditions of series [1]: single agent, infused at 400 mg over one hour.
In the next series the test system is Src family kinase. The note with it: also its dependent cellular responses.
Another series concerns lethal septic shock. The note with it: mice.
Series [2] relates to Src family kinases (Src, Lck, Yes, Fyn). The settings on record: at nanomolar concentrations.
A further series has as its system Epha1. The note with it: at nanomolar concentrations.
A further series deals with proteasome. The settings on record: cultured breast cancer cells; disulfiram bound to copper.

On to `CCN(CC)CCCC(C)Nc1ccnc2cc(Cl)ccc12.O=P(O)(O)O.O=P(O)(O)O` (stereo not drawn) [chloroquine phosphate, 7-chloro-4-[[4-(diethylamino)-1-methylbutyl]amino]quinoline phosphate (1:2)], for which the “tolerability of intravenous infusion” value in series [1] is recorded as “without complication”.
Take `CCN(CC)CCCC(C)Nc1ccnc2cc(Cl)ccc12` (stereo not drawn) [Chloroquine]: in the series on Src family kinase, the “inhibition of CpG-induced Src family kinase activation” value is “does not inhibit”.
Take `Cl.Cl.Nc1ccccc1Oc1ccc2c(N)nsc2c1` [Example M62812, 3-amino-6-(2-aminophenoxy)-1,2-benzisothiazole dihydrochloride]: the “prevention of lethal septic shock” value in the series with lethal septic shock is listed as “prevents lethal septic shock”.
`Cc1nc(Nc2ncc(C(=O)Nc3c(C)cccc3Cl)s2)cc(N2CCN(CCO)CC2)n1.O` [dasatinib, N-(2-chloro-6-methylphenyl)-2-[[6-[4-(2-hydroxyethyl)-1-piperazinyl]-2-methyl-4-pyrimidinyl]amino]-5-thiazolecarboxamide, monohydrate]: the “inhibition of Src family kinases (Src, Lck, Yes, Fyn)” value in series [2] is “inhibits”. In the series with Epha1, the “inhibition of Epha1” value is recorded as “inhibits”.
As to `CCN(CC)C(=S)SSC(=S)N(CC)CC` [disulfiram, 1-(diethylthiocarbamoyldisulfanyl)-N,N-diethyl-methanethioamide], the proteasomal activity result in the series on proteasome is “inhibits proteasomal activity”.
